{"source": "patent US6605305B2", "about": "“Plant drug for treatment of liver disease” (priority 2001, dated 2003)", "key": {"complement": {"test_system": "complement", "assay": "Effect of SCS on complement", "type": "in vivo, mice"}, "[1]": {"test_system": "Glutathione S-trasferase (GST)", "assay": "Liver GST activity in CCl4-intoxicated mice", "type": "in vivo", "description": "(§1) Female Balb/c mice (22-24 g) were maintained at 20° C. and a 12 hours light/dark cycle. The food and water allowed adliboti. Mice were randomly assigned to groups of 20 individuals. Twenty-four hours after the last dosing, animals were administered an oral dose of CCl4 (1%, v/v, in olive oil) at 1.0 mmol/kg. In treatment group, mice were treated intragastrically with SCS at daily dose of 50 mg/kg for 4 days. Control animals were given the vehicle (i.e. olive oil, 1 mL/kg). Twenty-four hours after intoxication, heparinized blood samples were drawn from ether-anesthetized mice by cardiac puncture, and the animals were killed by cardiac excision thereafter.\nThe rats were starved overnight before decapitation. The livers were perfused in situ with ice-cold 1.15% KCl solution. Tissue homogenate was prepared by homogenizing 1 g of hepatic tissue sample in 10 mL ice-cold homogenizing buffer with two 10-secbursts of atissue disintegrator at 135,000 rpm. Hepatic mitochondrial fraction was prepared by differential centrifugation in isotonic buffer ([…], 0.1 mM EDTA, 5 mM Tris, pH 7.4).\nGlutathione S-trasferase (GST) was determined. Total GST activity in the 105000 g supernatants of the liver homogenate was measured in 100 mM postassium-phosphate buffer (pH 6.5) containing 1 mM glutathione and 1 mM 1-chloro-2, 4-dinitrobenzene."}, "[2]": {"test_system": "Aflatoxin B1 induced liver cancer", "design": "species or system rats", "details": "rat, in vivo"}, "mice": {"test_system": "mice", "assay": "Acute toxicity in mice", "type": "in vivo", "description": "a. Route of Administration: intravenous and intraperiotoneal injection\nb. Route of administration: the oral route"}, "[3]": {"test_system": "mitochondrion oxygen consumption", "assay": "Mitochondrion oxygen consumption (respiratory control ratio) with TET", "type": "biochemical", "details": "TET 5 μl/L + SCS (100 μmol/L)", "description": "In present study, the effect of SCS on ATP and oxygen consumption was examined. The experiments of animal and livers were performed as previously described."}, "[4]": {"test_system": "bovine aortic smooth muscle cell modified LDL", "assay": "Cell-modified LDL oxidation (MDA)", "type": "cell-based", "details": "LDL + 100 μg SCS/ml, 24 hours, 37° C."}, "DNA synthesis of liver": {"test_system": "DNA synthesis of liver", "assay": "Liver DNA synthesis ([^3H] thymidine incorporation) in CCl4-intoxicated mice", "type": "in vivo", "details": "SCS 50 mg/kg intragastrically daily for 4 days", "description": "as §1\n[^3H] thymidine (10 μCi/100 g body weight) was injected intraperitoneally and mice were killed 2 hours after the infection. Mice were killed at 12, 24, 36, 48, 72 and 120 hours and their livers were removed.\nDNA synthesis was determined by the incorporation of [^3H] thymidice into the acid-insoluble fraction. The liver was homogenized in 4 volumes of distilled water. Two ml of homogenate were added to an equal volume of 10% trichloroacetic acid (TCA) solution and centrifuged at 900 g for 10 minutes. The resultant pellet was washed with 5% TCA twice and suspended again in 2 ml of 5% TCA solution. The suspension was incubated at 90° C. for 20 minutes and centrifuged at 900 g for 10 minutes. One ml of the supernatant was put into a scintillation vial and 10 ml of a toluene-based scintillation fluid containing DPO (0.4%), POPOP (0.01%), and Triton X-100 (30%) as added. The radioactivity was counted in a Packard Tri-Carb Liquid scintillation counter. The DNA content of the supernatant was assayed by the method of using calf thymus DNA as the standard."}, "[5]": {"test_system": "indomethacin induced small intestine mucosal damage", "assay": "Indomethacin induced small intestine mucosal damage", "type": "in vivo, rats", "description": "The experiment of animal was performed as previously described. Mucosal damage in gastrointestinal tract was induced ethanol or indomethacin administration. In ethanol-treated animals, after 24 hours of fasting, ethanol was given orally (70%, v/v, 10 ml/kg) by means of an oral gastric. Mucosal damage was assessed by measurement of areas with hemorrhagic lesion. In the indomethacin ulcer model, rats were refed for 1 hour after 24 hours of fasting. Thirty minutes later, indomethacin (15 mg/kg) was administered subcutaneously and rats were killed 24 hours later. Mucosal lesions were again measured along the greatest diameter. […] SCS administration was repeated again 6 hours after indomethacin injection."}, "rats": {"test_system": "rats", "assay": "Subacute toxicity, 30 days", "type": "in vivo"}, "Lipoperoxides": {"test_system": "Lipoperoxides", "assay": "Liver lipoperoxides (MDA) after CCl4", "type": "in vivo, mice", "description": "as §1, with “Twenty-four hours after intoxication, heparinized blood samples were drawn from ether-anesthetized mice by cardiac puncture, and the animals were killed by cardiac excision thereafter.” left out\nThe experiments were performed as previously described.\nIn the present study, the effect of SCS on lipoperoxides was examined."}, "[6]": {"details": "intragastric route, 500 mg/kg daily, 30 consecutive days"}, "[7]": {"details": "rats, 500 mg/kg daily injected, 30 days"}}, "note": "Marks after values point to notes of the source that are not given here."}
{"compound": "COc1cc2c(c(OC)c1OC)-c1c(cc(OC)c(OC)c1OC)C[C@](C)(O)[C@@H](C)C2", "note": "[SCS, Schisandrin]", "values": [{"measurement": "C.P.M.", "setting": "complement; treatment group", "value": "480 ± 51"}, {"measurement": "CPM of T/C", "setting": "complement; treatment versus control", "value": 194.3, "unit": "%"}, {"measurement": "GST activity", "setting": "[1]; CCl4 + SCS, liver homogenate supernatant", "value": "2.60 ± 0.28", "unit": "μmol/mg protein"}, {"measurement": "Inhibition of GST activity", "setting": "[1]; versus CCl4 control", "value": 55.5, "unit": "%"}, {"measurement": "% of iron-excluding area in liver section", "setting": "[2]", "value": "2.2 ± 0.2", "unit": "%"}, {"measurement": "Inhibition %", "setting": "[2]", "value": 87.8, "unit": "%"}, {"measurement": "LD50", "setting": "mice; intragastric administration", "value": 5200, "unit": "mg/kg"}, {"measurement": "LD50", "setting": "mice; intraperitoneal injection", "value": 1250, "unit": "mg/kg"}, {"measurement": "LD50 intravenous versus dose used in clinical trials for human being", "setting": "mice; intravenous", "value": "> 100", "unit": "times"}, {"measurement": "LD50", "setting": "mice; intravenous injection", "value": 720, "unit": "mg/kg"}, {"measurement": "RCR (respiratory control ratio)", "setting": "[3]", "value": "12.5 ± 1.10"}, {"measurement": "MDA (nmol/mg protein, x ± s)", "setting": "[4]", "value": "2.80 ± 0.29", "unit": "nmol/mg protein"}, {"measurement": "DNA synthesis (cpm/mg DNA)", "setting": "DNA synthesis of liver; 12 h", "value": "6520 ± 678", "unit": "cpm/mg DNA"}, {"measurement": "DNA synthesis (cpm/mg DNA)", "setting": "DNA synthesis of liver; 24 h", "value": "12305 ± 1405", "unit": "cpm/mg DNA"}, {"measurement": "DNA synthesis (cpm/mg DNA)", "setting": "DNA synthesis of liver; 48 h", "value": "8910 ± 920", "unit": "cpm/mg DNA"}, {"measurement": "DNA synthesis (cpm/mg DNA)", "setting": "DNA synthesis of liver; 72 h", "value": "9300 ± 940", "unit": "cpm/mg DNA"}, {"measurement": "Lesion area (mm^2) Small intestine", "setting": "[5]; SCS 10 mg/kg", "value": "350 ± 38* mm^2"}, {"measurement": "Lesion area (mm^2) Small intestine", "setting": "[5]; SCS 25 mg/kg", "value": "321 ± 33** mm^2"}, {"measurement": "Lesion area (mm^2) Small intestine", "setting": "[5]; SCS 50 mg/kg", "value": "295 ± 30** mm^2"}, {"measurement": "Behavior of the animal", "setting": "rats; [6]", "value": "remained normal"}, {"measurement": "Liver and kidney function, histological picture of important organs", "setting": "rats; [6]", "value": "no abnormalities"}, {"measurement": "Consumption of water, food and body weights versus control", "setting": "rats; [7]", "value": "did not show any differences"}, {"measurement": "Depressive, excitatory or sleepiness symptoms", "setting": "rats; [7]", "value": "no depressive, excitatory or sleepiness symptoms"}, {"measurement": "Microscopic inspection of stomach, liver, spleen and kidneys and their relative weights", "setting": "rats; [7]", "value": "no alteration"}, {"measurement": "Lipoperoxides (mmol MDA/g liver protein)", "setting": "Lipoperoxides; 1 h", "value": "0.70 ± 0.07", "unit": "mmol MDA/g liver protein"}, {"measurement": "Lipoperoxides T/C", "setting": "Lipoperoxides; 1 h", "value": 87, "unit": "%"}, {"measurement": "Lipoperoxides (mmol MDA/g liver protein)", "setting": "Lipoperoxides; 3 h", "value": "0.65 ± 0.069", "unit": "mmol MDA/g liver protein"}, {"measurement": "Lipoperoxides T/C", "setting": "Lipoperoxides; 3 h", "value": 72, "unit": "%"}, {"measurement": "Lipoperoxides (mmol MDA/g liver protein)", "setting": "Lipoperoxides; 6 h", "value": "0.60 ± 0.70", "unit": "mmol MDA/g liver protein"}, {"measurement": "Lipoperoxides T/C", "setting": "Lipoperoxides; 6 h", "value": 55, "unit": "%"}, {"measurement": "Lipoperoxides (mmol MDA/g liver protein)", "setting": "Lipoperoxides; 12 h", "value": "0.52 ± 0.60", "unit": "mmol MDA/g liver protein"}]}
